Tested on: DLD1 cells
Experiment: Effect of anti-cancer drug on cellular acidity (AO red fluorescence, flow cytometry) and cell growth
Type: cell-based, human
Conditions: DLD1 versus NCl/Adr cells at a given dose; AO red fluorescence after 6 hours exposure; growth 3 days after addition of drug, hemacytometer and trypan blue exclusion; FIG. 5
Method: Cells plated at 25% confluency were exposed to various doses of the drug for 6 hours and stained with AO (1 μg/ml, final concentration) for 30 minutes. Cells were washed 3× with PBS to remove residual stain, trypsinized to obtain a liquid suspension and assessed on a flow cytometer (FACSCalibur, Becton Dickinson San Jose Calif.). The red fluorescence of AO emanating from the cells was recorded on a linear scale in the cytometer's FL2 channel (emission filter >600 nm). A total of 30K cells were collected for post acquisition analysis with WinMDI Version 2.8 software (The Scripps Research Institute, La Jolla, Calif.). […] FIG. 5b plots the geometric mean of AO red fluorescence channel intensity against drug concentration for both DLD1 and NCl/Adr cells. In parallel cultures, cells were assessed for growth 3 days after the addition of drug (FIG. 5 c) —cells were enumerated with a hemacytometer and trypan blue exclusion staining.

CC(=O)O[C@H]1C(=O)[C@@]2(C)[C@H]([C@H](OC(=O)c3ccccc3)[C@]3(O)C[C@H](OC(=O)[C@H](O)[C@@H](NC(=O)c4ccccc4)c4ccccc4)C(C)=C1C3(C)C)[C@]1(OC(C)=O)CO[C@@H]1C[C@@H]2O [paclitaxel]
sensitivity of cancer cells to the drug (cell growth, reflected by acidic content of cells): DLD1 cells are more sensitive to paclitaxel than NCl/Adr

From US20120040394A1, “MICROTUMOURS” (priority 2008, published 2012)
